The target in one test is Human Full Length PARG (Homo sapiens (Human), UniProt Q86W56). As to the kind of experiment: PARG in vitro enzyme assay (TR-FRET). It counts as biochemical. The settings on record: read-out: PARG_EC50_ENZYME. In a few lines: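 Full-length human PARG ([…]) incubated with ribosylated PARP substrate (4.5 nM) for 10 min at room temperature in Tris pH 7.4 buffer with EDTA, EGTA, DTT, KCl. Detection by TR-FRET using anti-6HIS XL665 (14 nM final) and streptavidin europium cryptate (0.75 nM final) after 60 min; Em665/Em620 ratio converted to percent inhibition.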
Human Full Length PARG, sequence (Q86W56 whole entry): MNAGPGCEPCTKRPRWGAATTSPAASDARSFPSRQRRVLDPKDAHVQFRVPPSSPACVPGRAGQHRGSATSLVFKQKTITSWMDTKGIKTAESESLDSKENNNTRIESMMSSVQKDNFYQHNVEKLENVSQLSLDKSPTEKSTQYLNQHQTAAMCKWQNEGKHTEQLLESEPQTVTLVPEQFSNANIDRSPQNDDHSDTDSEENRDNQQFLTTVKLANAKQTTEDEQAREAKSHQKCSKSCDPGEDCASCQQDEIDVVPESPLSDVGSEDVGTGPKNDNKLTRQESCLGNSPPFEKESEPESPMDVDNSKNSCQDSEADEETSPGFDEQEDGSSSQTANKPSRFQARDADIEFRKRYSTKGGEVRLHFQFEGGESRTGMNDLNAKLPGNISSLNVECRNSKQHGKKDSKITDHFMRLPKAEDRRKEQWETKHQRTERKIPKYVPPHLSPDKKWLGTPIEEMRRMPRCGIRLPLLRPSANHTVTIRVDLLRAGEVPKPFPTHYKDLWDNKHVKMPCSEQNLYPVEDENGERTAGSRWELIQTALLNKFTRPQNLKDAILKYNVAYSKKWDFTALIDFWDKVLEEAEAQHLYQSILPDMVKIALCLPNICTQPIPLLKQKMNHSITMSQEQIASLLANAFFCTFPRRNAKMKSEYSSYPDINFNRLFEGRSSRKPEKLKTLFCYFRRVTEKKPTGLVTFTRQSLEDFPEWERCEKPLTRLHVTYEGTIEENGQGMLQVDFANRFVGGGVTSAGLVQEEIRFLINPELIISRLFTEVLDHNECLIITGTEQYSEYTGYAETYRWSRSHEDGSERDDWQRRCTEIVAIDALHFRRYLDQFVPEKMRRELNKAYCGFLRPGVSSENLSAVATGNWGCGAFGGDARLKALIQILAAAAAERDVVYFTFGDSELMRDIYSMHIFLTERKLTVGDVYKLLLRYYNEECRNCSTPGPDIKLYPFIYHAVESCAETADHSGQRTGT

The next test deals with PARG in HeLa cell line (Homo sapiens (Human), UniProt Q86W56). Briefly: PARG cell assay (nuclear PAR chains after MMS, immunofluorescence). It counts as cell-based. On the procedure:
This method is based on the detection of endogenous levels of poly (ADP) ribose chains present in the nucleus of HeLa cell line using indirect immunofluorescence. MMS stimulation increases PAR chains for up to 25 mins. After that point, PARG is active and breaks down the PAR chains, until by one hour after stimulation no PAR chains are detectable. Inhibition of PARG maintains PAR chains.
Briefly, following compound treatment and treatment with the DNA damaging agent methylmethanesulfonate (MMS), the cell monolayer is fixed, then permeabilised and incubated with a mouse monoclonal antibody raised against multimers of poly(ADP) ribose. After an overnight incubation, excess antibody is removed by washing and an Alexafluor 488-linked secondary antibody which recognises the mouse monoclonal is added together with a nuclear stain (Hoechst 33342). Images of the cells are then captured and analysed on a High Content Screening platform and the total intensity of the nuclear fluorescent signal at […] is quantified.
HeLa cells, seeded in 384-well plates, at 4000/well in 30 μL RPMI 1640 media, supplemented with 10% FBS and 2 mM Glutamax, were incubated overnight at 37° C., 5% CO2.
The following day, cells were dosed in quadruplicate with compound (10 point dose response) and incubated for 1 h at 37° C., 5% CO2.
At the end of the 1 h dosing period, MMS was added to duplicates at a final concentration of 50 μg/mL, for a further hour.
Media was tipped off and the cells fixed with 50 μL ice-cold 95% MetOH/PBS for 15 mins at −20° C. Following a PBS wash, 50 μL PBS/0.1% Triton was added to the cells for 20 mins. Following another PBS wash, anti-PAR antibody (Calbiochem AM80) was diluted 1:4000 in a buffer (PBS+0.5% FBS+0.05% Tween20) and added to the cells and incubated overnight at 4° C.
The following day, cells were washed three times with PBS and then incubated for 1 hr with secondary antibody (Alexa Fluor® 488 goat anti mouse IgG (H+L)) diluted 1:1000 and Hoechst diluted 1:5000 in buffer (5% FBS in PBS+0.05% Tween20).
Cells were washed three times with PBS and the plate sealed with a light-proof seal.
Images of the cells were captured on a ThermoFisher Celllnsight and the mean total intensity of spots fluorescent at 485 nm in the nucleus was reported.

[1] abbreviates: HeLa cells, MMS 50 μg/mL, read-out: PARG Cell IC50 Geomean.

The structures appear in SMILES notation. Like-named read-outs stand apart in the source and are kept apart here.

PARG in HeLa cell line, sequence (Q86W56 whole entry): as above

Turning to `Cc1nnc(-n2cc(C(=O)c3ccc(F)cc3)c3ccc(S(=O)(=O)NC4(C)CC4)cc32)s1` [Example 131, 3-(4-Fluorobenzoyl)-N-(1-methylcyclopropyl)-1-(5-methyl-1,3,4-thiadiazol-2-yl)indole-6-sulfonamide], the EC50 on Human Full Length PARG worked out at 261 nM. For the same molecule, on PARG in HeLa cell line, the IC50 (in general, the concentration at which inhibition is half-maximal) came out at 228 nM.
Regarding `CCn1c(=O)n(-c2nnc(C)o2)c2cc(S(=O)(=O)NC3(C)CC3)ccc21` [Example 190, 1-Ethyl-N-(1-methylcyclopropyl)-3-(5-methyl-1,3,4-oxadiazol-2-yl)-2-oxo-benzimidazole-5-sulfonamide], the EC50 on Human Full Length PARG was 934 nM. Also, the IC50 on PARG in HeLa cell line (setting [1]) worked out at 404 nM.
With `Cc1nnc(-n2c(=O)n(Cc3sc(C)nc3C)c3ccc(S(=O)(=O)NC4(C)CC4)cc32)o1` [Example 99], on Human Full Length PARG, the EC50 was 202 nM. Also, the IC50 at PARG in HeLa cell line (setting [1]) worked out at 342 nM.
On to `Cn1c(=O)n(-c2nnc(C(F)F)o2)c2cc(S(=O)(=O)NC3(CF)CC3)c(F)cc21` [Example 210, 3-[5-(Difluoromethyl)-1,3,4-oxadiazol-2-yl]-6-fluoro-N-[1-(fluoromethyl)cyclopropyl]-1-methyl-2-oxo-benzimidazole-5-sulfonamide], for which the EC50 at Human Full Length PARG was found to be 349 nM. In addition, the IC50 on PARG in HeLa cell line (setting [1]) worked out at 224 nM.
For `CCn1c(=O)n(-c2nnc(C(F)F)o2)c2cc(S(=O)(=O)NC3(C)CC3)ccc21` [Example 201, 3-[5-(Difluoromethyl)-1,3,4-oxadiazol-2-yl]-1-ethyl-N-(1-methylcyclopropyl)-2-oxo-benzimidazole-5-sulfonamide], the EC50 on Human Full Length PARG is 759 nM. In addition, the IC50 at PARG in HeLa cell line (setting [1]) came to 189 nM.
The like results for `N#CCn1c(=O)n(-c2nnc(C(F)F)s2)c2cc(S(=O)(=O)NC3(CF)CC3)c(F)cc21` [Example 215, 1-(Cyanomethyl)-3-[5-(difluoromethyl)-1,3,4-thiadiazol-2-yl]-6-fluoro-N-[1-(fluoromethyl)cyclopropyl]-2-oxo-benzimidazole-5-sulfonamide] were, in that order, 170 nM and 86 nM.
The like results for `COCCn1c(=O)n(-c2nc(C)ns2)c2cc(S(=O)(=O)NC3(C)CC3)ccc21` [Example 182, 1-(2-Methoxyethyl)-N-(1-methylcyclopropyl)-3-(3-methyl-1,2,4-thiadiazol-5-yl)-2-oxo-benzimidazole-5-sulfonamide] were, in that order, 309 nM and 537 nM.
In the case of `Cc1nnc(-n2c(=O)[nH]c3cc(F)c(S(=O)(=O)NC4(C)CC4)cc32)o1` [Example 192, 6-Fluoro-N-(1-methylcyclopropyl)-3-(5-methyl-1,3,4-oxadiazol-2-yl)-2-oxo-1H-benzimidazole-5-sulfonamide], the EC50 at Human Full Length PARG amounted to 1460 nM. Moreover, the IC50 at PARG in HeLa cell line (setting [1]) stood at 11700 nM.
As for `COCCn1c(=O)n(-c2ncns2)c2cc(S(=O)(=O)NC3(CF)CC3)ccc21` [Example 183, N-[1-(Fluoromethyl)cyclopropyl]-1-(2-methoxyethyl)-2-oxo-3-(1,2,4-thiadiazol-5-yl)benzimidazole-5-sulfonamide], the EC50 on Human Full Length PARG was determined as 549 nM. Further, the IC50 at PARG in HeLa cell line (setting [1]) was found to be 376 nM.
For the molecule `COCCn1c(=O)n(-c2nnc(C(F)F)s2)c2cc(S(=O)(=O)NC3(CF)CC3)ccc21` [Example 163, 3-[5-(Difluoromethyl)-1,3,4-thiadiazol-2-yl]-N-[1-(fluoromethyl)cyclopropyl]-1-(2-methoxyethyl)-2-oxo-benzimidazole-5-sulfonamide], the EC50 on Human Full Length PARG was found to be 90 nM. The IC50 at PARG in HeLa cell line (setting [1]) came to 104 nM.
In the same order, the values of `Cc1nnc(-n2cc(C(=O)C3CC3)c3ccc(S(=O)(=O)NC4(C)CC4)cc32)s1` [Example 130, 3-(Cyclopropanecarbonyl)-N-(1-methylcyclopropyl)-1-(5-methyl-1,3,4-thiadiazol-2-yl) indole-6-sulfonamide] are 218 nM and 135 nM.
The like results for `Cc1ccc(-n2c(=O)n(C)c3cc(F)c(S(=O)(=O)NC4(CF)CC4)cc32)nn1` [Example 204, 6-Fluoro-N-[1-(fluoromethyl)cyclopropyl]-1-methyl-3-(6-methylpyridazin-3-yl)-2-oxo-benzimidazole-5-sulfonamide] were, in that order, 6190 nM and 4230 nM.
The like results for `Cc1cc(Cn2c(=O)n(-c3nnc(C(F)F)s3)c3cc(S(=O)(=O)NC4(CF)CC4)ccc32)n(C)n1` [Example 164, 3-[5-(Difluoromethyl)-1,3,4-thiadiazol-2-yl]-1-[(2,5-dimethylpyrazol-3-yl)methyl]-N-[1-(fluoromethyl)cyclopropyl]-2-oxo-benzimidazole-5-sulfonamide] were, in that order, 203 nM and 109 nM.
For `Cn1c(=O)n(-c2nnc(C(F)F)s2)c2cc(S(=O)(=O)NC3(CF)CC3)ccc21` [Example 181, 3-[5-(Difluoromethyl)-1,3,4-thiadiazol-2-yl]-N-[1-(fluoromethyl)cyclopropyl]-1-methyl-2-oxo-benzimidazole-5-sulfonamide], the EC50 on Human Full Length PARG was 291 nM. Further, the IC50 on PARG in HeLa cell line (setting [1]) came out at 109 nM.
In the same order, the values of `Cc1nsc(-n2c(=O)n(C)c3ccc(S(=O)(=O)NC4(C)CC4)cc32)n1` [Example 176, 1-Methyl-N-(1-methylcyclopropyl)-3-(3-methyl-1,2,4-thiadiazol-5-yl)-2-oxo-benzimidazole-5-sulfonamide] are 6020 nM and 1790 nM.
In the same order, the values of `Cn1c(=O)n(-c2ncns2)c2cc(S(=O)(=O)NC3(C)CC3)ccc21` [Example 98] are 359 nM and 694 nM.
In the same order, the values of `COc1nsc(-n2c(=O)n(Cc3sc(C)nc3C)c3ccc(S(=O)(=O)NC4(C)CC4)cc32)n1` [Example 105] are 269 nM and 246 nM.
`Cc1nnc(-n2c(=O)[nH]c3cc(F)c(S(=O)(=O)NC4(CF)CC4)cc32)o1` [Example 194, 6-Fluoro-N-[1-(fluoromethyl)cyclopropyl]-3-(5-methyl-1,3,4-oxadiazol-2-yl)-2-oxo-1H-benzimidazole-5-sulfonamide]: at Human Full Length PARG, the EC50 worked out at 1240 nM. Besides, the IC50 on PARG in HeLa cell line (setting [1]) was greater than 30000 nM.
For `CN(C)CCCn1c(=O)n(-c2nnc(C(F)F)s2)c2cc(S(=O)(=O)NC3(CF)CC3)ccc21` [Example 170, 3-[5-(Difluoromethyl)-1,3,4-thiadiazol-2-yl]-1-[3-(dimethylamino)propyl]-N-[1-(fluoromethyl)cyclopropyl]-2-oxo-benzimidazole-5-sulfonamide], the EC50 on Human Full Length PARG was found to be 92 nM. Besides, the IC50 at PARG in HeLa cell line (setting [1]) was determined as 89 nM.
Regarding `COCCCn1c(=O)n(-c2nnc(C)s2)c2cc(S(=O)(=O)NC3(CF)CC3)ccc21` [Example 187, N-[1-(Fluoromethyl)cyclopropyl]-1-(3-methoxypropyl)-3-(5-methyl-1,3,4-thiadiazol-2-yl)-2-oxo-benzimidazole-5-sulfonamide], at Human Full Length PARG, the EC50 amounted to 427 nM. Moreover, the IC50 on PARG in HeLa cell line (setting [1]) was 201 nM.
In the same order, the values of `CCn1c(=O)n(-c2nnc(C(F)F)s2)c2cc(S(=O)(=O)NC3(C)CC3)c(F)cc21` [Example 207, 3-[5-(Difluoromethyl)-1,3,4-thiadiazol-2-yl]-1-ethyl-6-fluoro-N-(1-methylcyclopropyl)-2-oxo-benzimidazole-5-sulfonamide] are 133 nM and 24 nM.
The like results for `Cc1nnc(-n2c(=O)[nH]c3ccc(S(=O)(=O)NC4(C#N)CC4)cc32)s1` [Example 157, N-(1-Cyanocyclopropyl)-3-(5-methyl-1,3,4-thiadiazol-2-yl)-2-oxo-1H-benzimidazole-5-sulfonamide] were, in that order, 1170 nM and 3500 nM.
In the same order, the values of `Cc1nc(C)c(Cn2c(=O)n(-c3nc(Br)ns3)c3cc(S(=O)(=O)NC4(C)CC4)ccc32)s1` [Example 108] are 69 nM and 67 nM.
On to `COCCn1c(=O)n(-c2nnc(C)s2)c2cc(S(=O)(=O)NC3(C#N)CC3)ccc21` [Example 161, N-(1-Cyanocyclopropyl)-1-(2-methoxyethyl)-3-(5-methyl-1,3,4-thiadiazol-2-yl)-2-oxo-benzimidazole-5-sulfonamide], for which the EC50 at Human Full Length PARG amounted to 616 nM. Moreover, at PARG in HeLa cell line (setting [1]), the IC50 worked out at 491 nM.
In the same order, the values of `COCCn1c(=O)n(-c2nnc(C)s2)c2cc(S(=O)(=O)NC3(C)CC3)ccc21` [Example 147] are 461 nM and 437 nM.
